In patent publication US5077305A, “Thiazole carboxylic acids and esters” (Bristol-Myers Squibb Co., priority 1990, dated 1991):
≈ marks a conversion by molar mass, not a printed value.

System: human platelet aggregation (ADP-induced)
Format: cell-based
Conditions: human platelet rich plasma; ADP final concentration 0.5 mcg/mL; read-out: Inhibition of Human Platelet Aggregation IC50 Vs ADP

IC50 | Structure (SMILES)
0.41 µg/mL (≈ 0.955 µM) | COC(=O)COc1cccc(CCc2nc(-c3ccccc3)c(-c3ccccc3)s2)c1 [Example 1, Methyl (3-[2-(4,5-diphenyl-2-thiazolyl)ethyl]phenoxy]acetate]
0.36 µg/mL (≈ 0.866 µM) | O=C(O)COc1cccc(CCc2nc(-c3ccccc3)c(-c3ccccc3)s2)c1 [Example 2, [3-[2-(4,5-Diphenyl-2-thiazolyl)ethyl]phenoxy]acetic Acid]
